{
  "source": "patent US20110195403A1",
  "about": "“SYSTEMS AND METHODS FOR FERTILITY ANALYSIS” (priority 2010, published 2011)",
  "key": {"peroxidase": {"test_system": "peroxidase", "assay": "Peroxidase assay in saliva (Amplex Red)", "format": "biochemical", "description": "To determine the effect of various GRAS compounds as inhibitors of peroxidase activity, a standard assay using Amplex® Red (Life Technologies), which releases a fluorescent oxidation product.\nThe test compounds, such as GRAS materials or cocktails of same, were prepared at a concentration of 500 ppm in distilled water. For the assay, 50 μl samples of test compounds were mixed with 20-30 μl of saliva (either “pooled” or “unpooled”) prior to the addition of Amplex® Red. […] Reactions were allowed to run for 30 minutes during these assays."}, "Galactose Oxidase": {"test_system": "Galactose Oxidase", "settings": "dilute (3.5%) saliva; FIG. 13"}, "Lysozyme": {"molecular_target": "T1, Lysozyme (Homo sapiens, UniProt P61626)", "T1 sequence (P61626 19-148)": "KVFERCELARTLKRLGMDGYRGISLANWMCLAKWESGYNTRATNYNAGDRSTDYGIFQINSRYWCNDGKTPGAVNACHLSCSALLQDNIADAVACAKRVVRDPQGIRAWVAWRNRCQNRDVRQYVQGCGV", "assay": "Lysozyme inhibition saliva screening (fluorescein-labeled Micrococcus lysodeikticus)", "format": "biochemical", "settings": "for inhibition of Lysozyme: 100% saliva samples (data not shown); for RFU Reading (60 mins): saliva, test compound prepared at 5,000 ppm; for Lysozyme Inhibitor Activity: dilute (3.5%) saliva, FIG. 12", "excerpt": "Further details of these five compounds may also be seen in Table 5."}, "α-amylase": {"molecular_target": "T2, α-amylase (Homo sapiens, UniProt P0DUB6)", "T2 sequence (P0DUB6 16-511)": "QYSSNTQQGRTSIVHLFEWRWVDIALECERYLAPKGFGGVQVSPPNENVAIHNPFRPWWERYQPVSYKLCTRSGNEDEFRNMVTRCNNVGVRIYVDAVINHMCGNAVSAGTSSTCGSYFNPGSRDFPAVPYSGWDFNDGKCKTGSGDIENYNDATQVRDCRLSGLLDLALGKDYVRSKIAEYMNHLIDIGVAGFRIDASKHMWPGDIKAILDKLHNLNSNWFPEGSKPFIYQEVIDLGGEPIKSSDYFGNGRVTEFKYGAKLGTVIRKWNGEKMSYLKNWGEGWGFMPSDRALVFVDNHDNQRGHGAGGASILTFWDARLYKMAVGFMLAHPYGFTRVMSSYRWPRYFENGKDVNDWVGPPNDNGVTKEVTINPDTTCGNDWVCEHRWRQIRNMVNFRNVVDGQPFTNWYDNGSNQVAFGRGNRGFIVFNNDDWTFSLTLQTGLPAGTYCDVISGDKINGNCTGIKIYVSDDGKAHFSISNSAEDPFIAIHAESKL", "assay": "α-Amylase inhibition saliva screening (2-chloro-p-nitrophenol-maltotriose substrate, absorbance 405 nm)", "format": "biochemical", "settings": "for % Inhibition / % Std: relative to 100% Saliva Control; for α-amylase assay reading (absorbance at 405 nm), single replicate / α-amylase assay reading, Ave: test compound prepared at 5,000 ppm, saliva, 37° C.; for inhibition of α-Amylase: 100% saliva samples, FIG. 11; for α-Amylase Inhibitor Activity: dilute (3.5%) saliva, FIG. 10", "excerpt": "Further details of these five compounds may also be seen in Table 4."}, "[1]": {"settings": "500 ppm, pooled or unpooled saliva, 30 minutes, FIGS. 26-29"}},
  "note": "Several values for one entry are separate records, joined by “and”; a condition that tells them apart may be missing. Equal values may be shown once. Read-outs that look alike come from different tables or passages of the source.",
  "data": [
    {"compound": "O=C(O)c1ccccc1", "note": "[CDI #16, Benzoic acid]", "values": [
      {"measurement": "peroxidase inhibition", "setting": "peroxidase", "result": "significant peroxidase inhibition capabilities"}
    ]},
    {"compound": "Cn1c(=O)c2c(ncn2C)n(C)c1=O", "note": "[CDI #33, Caffeine]", "values": [
      {"measurement": "peroxidase inhibition", "setting": "peroxidase; [1]", "result": "significant peroxidase inhibition capabilities"}
    ]},
    {"compound": "COc1ccc(O)c(C(C)(C)C)c1", "note": "[CDI-039, 3-tert--butyl-hydroxyanisole]", "values": [
      {"measurement": "Galactose Oxidase Inhibitor Activity", "setting": "Galactose Oxidase", "result": "shown to have Galactose Oxidase Inhibitor Activity"},
      {"measurement": "peroxidase inhibition", "setting": "peroxidase; [1]", "result": "significant peroxidase inhibition capabilities"}
    ]},
    {"compound": "O=C(O)c1ccccc1", "note": "[CDI-40, Benzoic acid]", "values": [
      {"measurement": "Galactose Oxidase Inhibitor Activity", "setting": "Galactose Oxidase", "result": "shown to have Galactose Oxidase Inhibitor Activity"},
      {"measurement": "inhibition of Lysozyme", "setting": "Lysozyme", "result": "shown to inhibit Lysozyme"},
      {"measurement": "RFU Reading (60 mins)", "setting": "Lysozyme", "result": 35.82, "unit": "RFU"},
      {"measurement": "Lysozyme Inhibitor Activity", "setting": "Lysozyme", "result": "shown to have Lysozyme Inhibitor Activity"}
    ]},
    {"compound": "CC(=O)O", "note": "[CDI-047, Acetic acid]", "values": [
      {"measurement": "Galactose Oxidase Inhibitor Activity", "setting": "Galactose Oxidase", "result": "shown to have Galactose Oxidase Inhibitor Activity"},
      {"measurement": "inhibition of Lysozyme", "setting": "Lysozyme", "result": "shown to inhibit Lysozyme"},
      {"measurement": "RFU Reading (60 mins)", "setting": "Lysozyme", "result": 33.53, "unit": "RFU"},
      {"measurement": "Lysozyme Inhibitor Activity", "setting": "Lysozyme", "result": "shown to have Lysozyme Inhibitor Activity"}
    ]},
    {"compound": "Aluminum potassium sulfate dodecahydrate [CDI-42]", "values": [
      {"measurement": "% Inhibition", "setting": "α-amylase; 0 min", "result": 77.07, "unit": "%"},
      {"measurement": "% Std", "setting": "α-amylase; 0 min", "result": 22.93, "unit": "%"},
      {"measurement": "α-amylase assay reading (absorbance at 405 nm), single replicate", "setting": "α-amylase; 0 min", "result": "0.80 and 1.13 and 0.90 and 0.84"},
      {"measurement": "α-amylase assay reading, Ave", "setting": "α-amylase; 0 min", "result": 0.92},
      {"measurement": "inhibition of α-Amylase", "setting": "α-amylase", "result": "shown to inhibit α-Amylase"},
      {"measurement": "% Inhibition", "setting": "α-amylase; 5 min", "result": 53.76, "unit": "%"},
      {"measurement": "% Std", "setting": "α-amylase; 5 min", "result": 46.24, "unit": "%"},
      {"measurement": "α-amylase assay reading (absorbance at 405 nm), single replicate", "setting": "α-amylase; 5 min", "result": "1.65 and 2.15 and 1.80 and 1.81"},
      {"measurement": "α-amylase assay reading, Ave", "setting": "α-amylase; 5 min", "result": 1.85},
      {"measurement": "% Inhibition", "setting": "α-amylase; 15 min", "result": 42.65, "unit": "%"},
      {"measurement": "% Std", "setting": "α-amylase; 15 min", "result": 57.35, "unit": "%"},
      {"measurement": "α-amylase assay reading (absorbance at 405 nm), single replicate", "setting": "α-amylase; 15 min", "result": "2.37 and 2.38 and 2.25 and 2.17"},
      {"measurement": "α-amylase assay reading, Ave", "setting": "α-amylase; 15 min", "result": 2.29},
      {"measurement": "α-Amylase Inhibitor Activity", "setting": "α-amylase", "result": "shown to have α-Amylase Inhibitor Activity"},
      {"measurement": "Galactose Oxidase Inhibitor Activity", "setting": "Galactose Oxidase", "result": "shown to have Galactose Oxidase Inhibitor Activity"},
      {"measurement": "peroxidase inhibition", "setting": "peroxidase; [1]", "result": "significant peroxidase inhibition capabilities"}
    ]},
    {"compound": "Aluminum sulfate hydrate [CDI-34]", "values": [
      {"measurement": "% Inhibition", "setting": "α-amylase; 0 min", "result": 89.96, "unit": "%"},
      {"measurement": "% Std", "setting": "α-amylase; 0 min", "result": 10.04, "unit": "%"},
      {"measurement": "α-amylase assay reading, Ave", "setting": "α-amylase; 0 min", "result": 0.40},
      {"measurement": "α-amylase assay reading (absorbance at 405 nm), single replicate", "setting": "α-amylase; 0 min, sulfate hydrate", "result": "0.40 (2×) and 0.36 and 0.45"},
      {"measurement": "inhibition of α-Amylase", "setting": "α-amylase", "result": "shown to inhibit α-Amylase"},
      {"measurement": "% Inhibition", "setting": "α-amylase; 5 min", "result": 87.39, "unit": "%"},
      {"measurement": "% Std", "setting": "α-amylase; 5 min", "result": 12.61, "unit": "%"},
      {"measurement": "α-amylase assay reading, Ave", "setting": "α-amylase; 5 min", "result": 0.50},
      {"measurement": "α-amylase assay reading (absorbance at 405 nm), single replicate", "setting": "α-amylase; 5 min, sulfate hydrate", "result": "0.49 and 0.50 (2×) and 0.52"},
      {"measurement": "% Inhibition", "setting": "α-amylase; 15 min", "result": 85.98, "unit": "%"},
      {"measurement": "% Std", "setting": "α-amylase; 15 min", "result": 14.02, "unit": "%"},
      {"measurement": "α-amylase assay reading, Ave", "setting": "α-amylase; 15 min", "result": 0.56},
      {"measurement": "α-amylase assay reading (absorbance at 405 nm), single replicate", "setting": "α-amylase; 15 min, sulfate hydrate", "result": "0.53 and 0.61 and 0.54 and 0.56"},
      {"measurement": "α-Amylase Inhibitor Activity", "setting": "α-amylase", "result": "shown to have α-Amylase Inhibitor Activity"}
    ]}
  ]
}
